We go through six compounds from article PMC11845477, “Exploring the principles behind antibiotics with limited resistance” (Nature Communications, 2025).

Assay [1] has as its system A. baumannii ATCC 17978 (SEN) and A. baumannii ATCC BAA-1605 (MDR). The assay can be described thus: microbe, parasite or virus in culture. The note with it: for MIC: across three biological replicates. Format: cell-based, Acinetobacter baumannii. The method, then: This study focused on multiple bacterial strains, as follows. For the FoR and ALE experiments, 2 strains per species were chosen: E. coli ATCC 25922, K. pneumoniae ATCC 10031, A. baumannii ATCC 17978, and P. aeruginosa ATCC BAA-3107 as sensitive (SEN) strains, and E. coli NCTC13846, K. pneumoniae ATCC 700603, A. baumannii ATCC BAA-1605 and P. aeruginosa LESB58 as multi-drug resistant (MDR) strains. Functional metagenomic screens were performed with E. coli ATCC 25922 and K. pneumoniae ATCC 10031 strains. To determine the dose-kill properties of the different antibiotics, an E. coli strain (ATCC 25922) expressing a yellow fluorescent protein (pZS2R, YFP, CHL^R) and a red fluorescent protein (pZS2R, mCherry, CHL^R) was used.
Unless otherwise indicated, cation-adjusted Mueller-Hinton Broth 2 (MHB, Millipore) medium was used throughout the study, except for SCH79797 (SCH).
(§1) A robotic liquid handling system was used to automatically prepare a 11 to 16-step serial dilution in 384-well microtiter plates (Greiner). A final concentration of 5 × 10^5 bacterial cells per mL were inoculated into each well containing 60 µL MHB medium. Bacterial cultures were incubated at 37 °C with continuous shaking (Infors shaker, 900 rpm with 3 mm throw) for 18 hours (2 replicates from each). Cell growth was monitored by measuring the optical density (OD600 values, using Biotek Synergy microplate reader). MIC was defined as the antibiotic concentration of complete growth inhibition (i.e., OD600 < 0.05). Relative MIC was calculated as follows:1 relativeMIC=MICevolved/MICancestor

Assay [2] deals with E. coli ATCC 25922 (SEN) and E. coli NCTC13846 (MDR). In words: Adaptive laboratory evolution (ALE), relative MIC of evolved lines. In kind it is cell-based, Escherichia coli. To be noted: for Relative MIC (log10): EC-SEN (Escherichia coli ATCC 25922).
Excerpt: Using the same set of bacterial strains, we initiated adaptive laboratory evolution with the aim to maximize the level of antibiotic resistance in the populations achieved during a longer, but fixed time period.
An established protocol for adaptive laboratory evolution[46],[73] was followed to propagate populations with the highest resistance levels. Starting with an antibiotic concentration that caused approximately 50% growth inhibition, ten parallel populations for each antibiotic-ancestor strain combination were grown for 72 hours at 37 °C with continuous shaking (300 RPM). MHB broth medium was used unless stated otherwise. After each incubation, 20 µl of each culture was transferred to four new wells containing fresh medium with increasing antibiotic concentrations (0.5×, 1×, 1.5×, and 2.5× the previous concentration) in a chessboard layout to monitor potential cross-contamination. Growth was monitored by measuring OD600 using a Biotek Synergy 2 microplate reader, and only populations grown in the highest drug concentration with an OD600 > 0.2 were transferred further.
as §1, with “relativeMIC=MICevolved/MICancestor […]” for “relativeMIC=MICevolved/MICancestor”
Supplementary Figure 4. Resistance levels following adaptive laboratory evolution across bacterial strains. The level of resistance was measured as the fold change in relative MIC between evolved and ancestral strains after ~60 days of adaptive laboratory evolution. Data are grouped by bacterial strain (A. baumannii (AB), E. coli (EC), K. pneumoniae (KP), and P. aeruginosa (PA)) and categorized as either multidrug-resistant (MDR) or sensitive (SEN). Each data point represents a laboratory evolved line, and boxplots show the median, first and third quartiles, with whiskers indicating the 5th and 95th percentiles.
Statistical analysis was performed using two-sided Dunn’s post-hoc test with Benjamini-Hochberg correction for multiple comparisons (****/ ***/ **/ * indicates p < 0.0001/ 0.001/ 0.01/ 0.05). For detailed information on antibiotic and bacterial species, see Supplementary Table 1. For mode of action groups, refer to Table 1. Source data are provided as a Source Data file.
(1 picture or pasted object on this page, not shown here)

Setting [3] is: Acinetobacter baumannii ATCC 17978 (AB-SEN), ancestor strain, sheet fig 2a.
Setting [4] is: EC-SEN (E. coli ATCC 25922), evolved line 1 of the given antibiotic.
[5] abbreviates: EC-SEN (E. coli ATCC 25922), evolved line 3 of the given antibiotic.
The mark [6] stands for this setting: EC-SEN (E. coli ATCC 25922), evolved line 7 of the given antibiotic.
Where [7] appears, read: EC-SEN (E. coli ATCC 25922), evolved line 9 of the given antibiotic.
[8] abbreviates: Acinetobacter baumannii, Acinetobacter baumannii ATCC 17978 (AB-SEN).
The mark [9] stands for this setting: Acinetobacter baumannii, Acinetobacter baumannii ATCC BAA-1605 (AB-MDR).

Consider polymyxin-B, for which the MIC of ancestor turned out to be 1 µg/mL in assay [1] (setting [3]); 1 µg/mL in assay [1] (Acinetobacter baumannii ATCC BAA 1605 (AB-MDR), ancestor); 1 µg/mL in assay [1] (Acinetobacter baumannii ATCC BAA 1605 (AB-MDR), ancestor strain, sheet fig 2a); 1 µg/mL in assay [1] (ancestor AB-SEN (Acinetobacter baumannii ATCC 17978)). Besides, the MIC of evolved line amounted to 64 µg/mL in assay [2] (EC-MDR NCTC 13846, evolved line 3); 64 µg/mL in assay [2] (EC-MDR NCTC 13846, evolved line 5); 64 µg/mL in assay [2] (EC-MDR NCTC 13846, evolved line 6); 32 µg/mL in assay [2] (EC-MDR NCTC 13846, evolved line 8); 64 µg/mL in assay [2] (EC-MDR NCTC 13846, evolved line 9); 64 µg/mL in assay [2] (EC-MDR NCTC 13846, evolved line 10). For the same compound, the MIC of evolved line in assay [2] (setting [4]), in assay [2] (setting [5]), in assay [2] (setting [6]) and in assay [2] (setting [7]) was 64 µg/mL throughout.
Turning to `C[C@@H]1CN2c3c(cc4c(N5C(=O)OC[C@@H]5C)noc4c3F)CC3(C(=O)NC(=O)NC3=O)[C@H]2[C@H](C)O1` [Zoliflodacin], the MIC in assay [1] (setting [8]) was determined as 8 µg/mL; in assay [1] (setting [9]), 16 µg/mL. Moreover, the “Relative MIC” value in assay [2] (EC-SEN (E. coli ATCC 25922), evolved line 1 vs ancestor) is 64; in assay [2] (EC-SEN (E. coli ATCC 25922), evolved line 2 vs ancestor), 8; in assay [2] (EC-SEN (E. coli ATCC 25922), evolved line 3 vs ancestor) it was 128; in assay [2] (EC-SEN (E. coli ATCC 25922), evolved line 4 vs ancestor) it was 128; in assay [2] (EC-SEN (E. coli ATCC 25922), evolved line 5 vs ancestor) it was 256; in assay [2] (EC-SEN (E. coli ATCC 25922), evolved line 6 vs ancestor), 32. Also, the “Relative MIC” value in assay [2] (EC-SEN (E. coli ATCC 25922), evolved line 7 vs ancestor) was 64; in assay [2] (EC-SEN (E. coli ATCC 25922), evolved line 8 vs ancestor) it was 128; in assay [2] (EC-SEN (E. coli ATCC 25922), evolved line 9 vs ancestor), 64; in assay [2] (EC-SEN (E. coli ATCC 25922), evolved line 10 vs ancestor) it was 128; in assay [2] (Escherichia coli ATCC 25922 (EC-SEN), evolved line 1) it was 64; in assay [2] (Escherichia coli ATCC 25922 (EC-SEN), evolved line 2) it was 8. The “Relative MIC” value in assay [2] (Escherichia coli ATCC 25922 (EC-SEN), evolved line 3) is recorded as 128; in assay [2] (Escherichia coli ATCC 25922 (EC-SEN), evolved line 4), 128; in assay [2] (Escherichia coli ATCC 25922 (EC-SEN), evolved line 5) it was 256; in assay [2] (Escherichia coli ATCC 25922 (EC-SEN), evolved line 6), 32; in assay [2] (Escherichia coli ATCC 25922 (EC-SEN), evolved line 7), 64; in assay [2] (Escherichia coli ATCC 25922 (EC-SEN), evolved line 8) it was 128. Besides, the “Relative MIC” value was found to be 64 in assay [2] (Escherichia coli ATCC 25922 (EC-SEN), evolved line 9) and 128 in assay [2] (Escherichia coli ATCC 25922 (EC-SEN), evolved line 10). For the same compound, the “Relative MIC (log10)” value is on record as 2.107 log10 in assay [2] (evolved line 3); 2.107 log10 in assay [2] (evolved line 4); 2.408 log10 in assay [2] (evolved line 5); 2.107 log10 in assay [2] (evolved line 8); 2.107 log10 in assay [2] (evolved line 10).
As to Tridecaptin M152-P3, the MIC in assay [1] (Acinetobacter baumannii ATCC 17978 (AB-SEN)) and in assay [1] (Acinetobacter baumannii ATCC BAA-1605 (AB-MDR)) was 8 µg/mL in each case. Besides, the MIC of evolved line in assay [2] (setting [4]) amounted to 32 µg/mL; in assay [2] (EC-SEN (E. coli ATCC 25922), evolved line 2 of the given antibiotic), 64 µg/mL; in assay [2] (setting [5]) it was 32 µg/mL; in assay [2] (EC-SEN (E. coli ATCC 25922), evolved line 4 of the given antibiotic), 32 µg/mL; in assay [2] (EC-SEN (E. coli ATCC 25922), evolved line 6 of the given antibiotic), 32 µg/mL; in assay [2] (setting [6]) it was 32 µg/mL. The MIC of evolved line was determined as 32 µg/mL in assay [2] (EC-SEN (E. coli ATCC 25922), evolved line 8 of the given antibiotic); 32 µg/mL in assay [2] (setting [7]); 64 µg/mL in assay [2] (EC-SEN (E. coli ATCC 25922), evolved line 10 of the given antibiotic).
As to `CN[C@@H]1[C@@H](O[C@H]2O[C@H](CO)[C@@H](N)[C@H](O)[C@H]2O)OC2C[C@@H](N)[C@@H](O[C@H]3[C@H](O)[C@@H](O)[C@H](N)C[C@@H]3N)OC2[C@@H]1O` (stereo partly shown) [Apramycin], the MIC of ancestor is 4 µg/mL in assay [1] (Acinetobacter baumannii ATCC 17978 (AB-SEN), ancestor strain) and 4 µg/mL in assay [1] (setting [3]). Besides, the MIC in assay [1] (setting [8]) was found to be 4 µg/mL; in assay [1] (setting [9]), 8 µg/mL.
As to `COc1c(N2C[C@@H]3CCCN[C@@H]3C2)c(F)cc2c(=O)c(C(=O)O)cn(C3CC3)c12` [Moxifloxacin], the MIC in assay [1] (setting [9]) is 32 µg/mL.
For `C[C@@H](O)[C@H]1C(=O)N2C(C(=O)O)=C(S[C@@H]3CN[C@H](C(=O)N(C)C)C3)[C@H](C)[C@H]12` [Meropenem], the MIC of ancestor in assay [1] (AB-SEN, Acinetobacter baumannii ATCC 17978, ancestor strain) was 1 µg/mL; in assay [1] (setting [3]) it was 1 µg/mL. In addition, the MIC in assay [1] (setting [8]) was 1 µg/mL; in assay [1] (setting [9]), greater than 32 µg/mL.
